Source: patent US6794396B2, “Substituted pyridines useful for inhibiting cholesteryl ester transfer protein activity” (Pharmacia Corporation, priority 1998, dated 2004)
“And” between values parts separate entries of the source, which are not always exact repeats. Identical values can stand only once.

Key:
CETP [1] = assay: Inhibition of CETP activity in vivo: [3H]CE transfer from HDL to VLDL and LDL after intravenous injection; parameters: species or system golden Syrian hamster; settings: hamsters, injection into jugular vein; for % Inhibition of CETP activity: versus control animals
Source text: Inhibition of CETP by a test compound can be determined by administering the compound to an animal by intravenous injection, determining the rate of transfer of tritium-labeled cholesteryl ester (^3H]CE) from HDL to VLDL and LDL particles, and comparing the rate of transfer with the rate of transfer observed in control animals.
Male golden Syrian hamsters were maintained on a diet of chow containing 0.24% cholesterol for at least two weeks prior to the study. Immediately before the experiment, animals were anesthetized with pentobarbital. Anesthesia was maintained throughout the experiment. Indwelling catheters were inserted into the jugular vein and carotid artery. Test compound, Dimethyl 5,5′-dithiobis[2-difluoromethyl)-4-(2-methylpropyl)-6-(trifluoromethyl)-3-pyridinecarboxylate] (Compound 181), was dissolved as a 80 mM stock solution in vehicle (2% ethanol: 98% PEG 400, Sigma Chemical Company, St. Louis, Mo., USA). At the start of the experiment all animals received 0.2 ml of a solution containing [^3H]-CE-HDL into the jugular vein. [^3H[-CE-HDL is a preparation of human HDL containing tritium-labeled cholesteryl ester, and was prepared according to the method of Glenn et al. (“Quantification of Cholesteryl Ester Transfer Protein (CETP): A) CETP Activity and B) Immunochemical Assay of CETP Protein,” Meth. Enzymol., Glenn and Melton (Meth. Enzymol., 263, 339-351 (1996) which is incorporated herein by reference).
After 2 minutes, the animals received 0.1 ml of the test solution injected into the jugular vein. Control animals received 0.1 ml of the vehicle solution without test compound. After 5 minutes, the first blood samples (0.5 ml) were taken from the carotid artery and collected in standard microtainer tubes containing ethylenediamine tetraacetic acid. Saline (0.5 ml) was injected to flush the catheter and replace blood volume. Subsequent blood samples were taken at two hours and four hours by the same method. Blood samples were mixed well and kept on ice until the completion of the experiment.
Plasma was obtained by centrifugation of the blood samples at 4° C. The plasma (50 μl) was then treated with 5 μl of precipitating reagent (dextran sulfate, 10 g/l; 0.5M magnesium chloride to remove VLDL/LDL. After centrifugation, the resulting supernatant (25 μl) containing the HDL was analyzed for radioactivity using a liquid scintillation counter. The percentage [^3H] CE transferred from HDL to LDL and VLDL (% transfer) was calculated based on the total radioactivity in equivalent serum samples before precipitation. Typically, the amount of transfer from HDL to LDL and VLDL in control animals was 30 to 35% after four hours. The polyethylene glycol vehicle was determined to have no effect on CETP activity in this model.
(Compound 181), and five animals that received vehicle. At two hours, mean values of 13% [^3H]-Ce transfer from HDL to LDL and VLDL were obtained for the control animals, but only 4.7% transfer for the animals receiving Compound 181. […] Student t-tests were performed to determine if the means for control and animals treated with Compound 181 were statistically different.

CETP [2] = assay: Chronic inhibition of CETP activity in vivo: Alzet pump infusion, serum LDL/HDL cholesterol profiles by FPLC; parameters: species or system golden Syrian hamster
Source text: Chronic inhibition of CETP can be achieved by administration of Dimethyl 5,5′-dithiobis[2-difluoromethyl)-4-(2-methylpropyl)-6-(trifluoromethyl)-3-pyridinecarboxylate] (Compound 181) to hamsters using Alzet pump delivery of Compound 181 into the jugular veins of hamsters. Inhibition of CETP should lead to an increase in HDL cholesterol with a concomitant decrease in LDL cholesterol. This can be determined by filtering serum obtained at different time intervals after initiation of inhibitor infusion and quantitating the amount of cholesterol in the LDL and HDL peaks, respectively. In addition the activity of CETP in the serum can be assessed in an ex vivo CETP activity assay.
Male golden Syrian hamsters were maintained on a diet of normal rodent chow enriched with 0.24% cholesterol for at least 2 weeks prior to study. On Day 1, the hamsters were anesthetized with pentobarbital. An indwelling catheter was inserted into the jugular vein and exteriorized onto the back of the neck. The hamsters received […] of Compound 181 (38.5 mg/kg) in a 2% ethanol:98% PEG400 vehicle, or the 2% ethanol:98% PEG400 vehicle alone. An Alzet pump was then attached to the jugular catheter which delivered a steady infusion of 24 μl/day for a dose of 1.3 mg/day(9.2 mg/kg/day). The hamsters received the vehicle (2% ETOH:98% PEG400) or Compound 181 for 8 days. The hamsters were maintained for 12 days. Blood samples were taken on day 1 (pre-bleed) at the time of surgery, and on days 5, 7, 8 and 12. Fast Protein Liquid Chromatography (FPLC) on tandem Superose 6 columns of pooled hamster serum was performed to obtain cholesterol profiles for the two experimental groups.
Serum cholesterol profiles were determined on pooled sera from each group. Total serum cholesterol and CETP activity were determined on individual serum samples. In hamsters administered Compound 181 chronically, there was a 30% reduction and 26% increase in LDL cholesterol and HDL cholesterol concentrations, respectively, compared to the vehicle group at Day 5. The decrease in LDL and increase in HDL persisted until Day 8 when the Alzet pump was exhausted. […] Therefore, it would appear that for every percent reduction in CETP activity determined by the ex vivo assay, there was a 2-3% decrease in LDL cholesterol or increase in HDL cholesterol concentrations.

[3] = Day 1 (pre-bleed), pooled serum
[4] = Day 12, after pump exhausted at Day 8, pooled serum

COC(=O)c1c(C(F)F)nc(C(F)(F)F)c(SSc2c(C(F)(F)F)nc(C(F)F)c(C(=O)OC)c2CC(C)C)c1CC(C)C [Compound 181, Dimethyl 5,5′-Dithiobis[2-(difluoromethyl)-4-(2-methylpropyl)-6-(trifluoromethyl)-3-pyridinecarboxylate]]
% Transfer of [3H]-CE from HDL to LDL and VLDL (CETP [1]; four hours): 10.6%
% Inhibition of CETP activity (CETP [1]; four hours): 50.8%
% Transfer of [3H]-CE from HDL to LDL and VLDL (CETP [1]; two hours): 4.7%
% Inhibition of CETP activity (CETP [1]; two hours): 64% and 63.6%
HDL cholesterol concentration, % of cholesterol concentration in vehicle group (CETP [2]; [3]): 105%
LDL cholesterol concentration, % of cholesterol concentration in vehicle group (CETP [2]; [3]): 111%
increase in HDL cholesterol concentration compared to the vehicle group (CETP [2]; Day 5): 26%
reduction in LDL cholesterol concentration compared to the vehicle group (CETP [2]; Day 5): 30%
HDL cholesterol concentration, % of cholesterol concentration in vehicle group (CETP [2]; [4]): 114%
LDL cholesterol concentration, % of cholesterol concentration in vehicle group (CETP [2]; [4]): 90%
